Measured values reported in patent publication US8673919B2, “Dihydropyridin sulfonamides and dihydropyridin sulfamides as MEK inhibitors” (Ardea Biosciences, Inc., priority 2009, dated 2014).

Legend:
MEK1 = molecular target: T1, MEK1 (Homo sapiens, UniProt Q02750); experiment: MEK1 Activation Kinase Assay (HTRF; Cot1 phosphorylation of GST-MEK1); assay type: biochemical; conditions: activation of GST-MEK1 by Cot1, HTRF, 10 min pre-incubation, 20 min reaction at 22° C.
T1 construct: purchased Millipore 14-420
T1 sequence (Q02750 whole entry): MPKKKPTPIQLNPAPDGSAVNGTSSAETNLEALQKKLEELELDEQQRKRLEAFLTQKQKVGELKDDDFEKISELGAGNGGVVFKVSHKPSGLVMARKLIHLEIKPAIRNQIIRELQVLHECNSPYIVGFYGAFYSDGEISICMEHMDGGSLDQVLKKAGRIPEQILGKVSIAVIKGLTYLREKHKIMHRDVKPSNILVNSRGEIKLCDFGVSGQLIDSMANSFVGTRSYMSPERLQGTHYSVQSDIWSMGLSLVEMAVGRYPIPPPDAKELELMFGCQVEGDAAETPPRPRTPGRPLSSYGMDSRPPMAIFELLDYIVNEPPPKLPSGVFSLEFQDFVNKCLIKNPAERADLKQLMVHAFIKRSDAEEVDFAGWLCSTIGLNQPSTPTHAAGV
Text: The kinase Cot1 activates MEK1 by phosphorylating its activation loop. The inhibitory activity of compounds of the present invention on this activation of MEK1 was quantified employing the HTRF assay described in the following paragraphs.
N-terminally His6-tagged recombinant kinase domain of the human Cot1 (amino acids 30-397, purchased from Millipore, cat. no 14-703) expressed in insect cells (SF21) and purified by Ni-NTA affinity chromatography was used as kinase. As substrate for the kinase reaction the unactive C-terminally His6-tagged GST-MEK1 fusion protein (Millipore cat. no 14-420) was used.
For the assay 50 nl of a 100 fold concentrated solution of the test compound in DMSO was pipetted into a black low volume 384 well microtiter plate (Greiner Bio-One, Frickenhausen, Germany), 3 μl of a solution of 24 nM GST-MEK1 and 166.7 μM adenosine-tri-phosphate (ATP) in assay buffer [50 mM Tris/HCl pH 7.5, 10 mM MgCl2, 2 mM dithiothreitol, 0.01% (v/v) Igepal CA 630 (Sigma), 5 mM β-phospho-glycerol] were added and the mixture was incubated for 10 min at 22° C. to allow pre-binding of the test compounds to the GST-MEK1 before the start of the kinase reaction. Then the kinase reaction was started by the addition of 2 μl of a solution of Cot1 in assay buffer and the resulting mixture was incubated for a reaction time of 20 min at 22° C. The concentration of Cot1 in the assay was adjusted depending of the activity of the enzyme lot and was chosen appropriate to have the assay in the linear range, typical enzyme concentrations were in the range of about 2 ng/μl (final conc. in the 5 μl assay volume). The reaction was stopped by the addition of 5 μl of a solution of HTRF detection reagents (13 nM anti GST-XL665 [#61 GSTXLB, Fa. Cis Biointernational, Marcoule, France], 1 nM Eu-cryptate labelled anti-phospho-MEK 1/2 (Ser217/221) [#61P17KAZ, Fa. Cis Biointernational],) in an aqueous EDTA-solution (100 mM EDTA, 500 mM KF, 0.2% (w/v) bovine serum albumin in 100 mM HEPES/NaOH pH 7.5).
The resulting mixture was incubated 2 h at 22° C. to allow the binding of the phosphorylated GST-MEK1 to the anti-GST-XL665 and the Eu-cryptate labelled anti-phospho-MEK 1/2 antibody. Subsequently the amount of Ser217/Ser221-phosphorylated substrate was evaluated by measurement of the resonance is energy transfer from the Eu-Cryptate-labelled anti-phospho-MEK antibody to the anti-GST-XL665. Therefore, the fluorescence emissions at 620 nm and 665 nm after excitation at 350 nm was measured in a HTRF reader, e.g. a Rubystar (BMG Labtechnologies, Offenburg, Germany) or a Viewlux (Perkin-Elmer). The ratio of the emissions at 665 nm and at […] was taken as the measure for the amount of phosphorylated substrate. The data were normalised (enzyme reaction without inhibitor=0% inhibition, all other assay components but no enzyme=100% inhibition).

A375 cells = experiment: A375 Crystal Violet (CV) Proliferation Assay; assay type: cell-based; conditions: A375 human melanoma cells, mutant BRAF V600E, crystal violet staining, 4 days
Description: Cell proliferation for A375 cells [human melanoma cell line, expressing mutant BRAF V600E] was measured by crystal violet (CV) staining: Cultivated human A375 cells were plated out in a density of 1500 cells/measurement point in 200 μl of growth medium (DMEM/HAMS F12 with 10% FBS and 2 mM Glutamine) in a 96-well multititer plate. After 24 hours, the cells from a plate (zero plate) were stained with crystal violet (see below), while the medium in the other plates was replaced by fresh culture medium (200 μl) to which the test substances had been added in various concentrations (0 μM, and in the range 0.3 nM-30 μM; the final concentration of the solvent dimethyl sulphoxide was 0.5%). The cells were incubated in the presence of the test substances for 4 days. The cell proliferation was determined by staining the cells with crystal violet: the cells were fixed by adding 20 μl/measurement point of an 11% glutaraldehyde solution at room temperature for 15 min. After the fixed cells had been washed three times with water, the plates were dried at room temperature. The cells were stained by adding 100 μl/measurement point of a 0.1% crystal violet solution (pH adjusted to pH 3 by adding acetic acid). After the stained cells had been washed three times with water, the plates were dried at room temperature. The dye was dissolved by adding 100 μl/measurement point of a 10% acetic acid solution, and the extinction was determined by photometry at a wavelength of 595 nm. The percentage change in cell growth was calculated by normalizing the measurements to the extinctions of the zero point plate (=0%) and the extinction of the untreated (0 μM) cells (=100%). The IC50 values were determined by means of a 4-parameter fit using the company's own software.

HCT116 cells = experiment: HCT116 Cell Titer Glo (CTG) Proliferation Assay; assay type: cell-based; conditions: HCT116 human colorectal cells
Description: (§1) HCT116 cells [human colorectal cell line, expressing […]] were plated at a density of 3000 cells/well in 96 well black-clear bottom tissue culture plates (Costar 3603 black/clear bottom) in 100 μl/well DMEM medium (DMEM/Ham's F12) with 10% Fetal Bovine Serum (FBS) and stable Glutamine incubated at 37° C. Sister wells were plated in separate plate for time zero determination. All plates were incubated overnight at 37° C. Take down time zero plate: 100 μl/well CTG solution (Promega Cell Titer Glo solution) were added to time zero wells in sister plate; the plates were mixed for 2 min on orbital shaker to ensure cell lysis, incubated for 10 minutes, luminescence was read on VICTOR3 (Perkin Elmer). Twenty-four hours after cell seeding, test compounds were diluted in 50 μl medium and were added at a final concentration range from as high 10 μM to as low […] depending on the activities of the tested compounds in serial dilutions at a final DMSO concentration of 0.4%. Cells were incubated for 72 hours at 37° C. after addition of the test compound. Then, using a Promega Cell Titer Glo Luminescent® assay kit, 100 μl microliter lysis buffer containing of the enzyme luciferase and its substrate, luciferin mixture, were added to each well and incubated for 10 min at room temperature in the dark to stabilize luminescence signal. The samples were read on VICTOR3 (Perkin Elmer) using Luminescence protocol. The percentage change in cell growth was calculated by normalizing the measurements to the extinctions of the zero point plate (=0%) and the extinction of the untreated (0 μM) cells (=100%). The IC50 values were determined by means of a 4-parameter fit using the company's own software.

A549 cells = experiment: A549 Cell Titer Glo (CTG) Proliferation Assay; assay type: cell-based; conditions: A549 human non small cell lung cancer cells, mutant K-Ras G12S
Description: as §1
A549 cells [human non small cell lung cancer cell line, expressing mutant K-Ras G12S] were seeded at a density of 2000 cells/well in 96 well black-clear bottom tissue culture plates (Costar 3603 black/clear bottom) in 100 μl/well DMEM medium (DMEM/Ham's F12) with 10% Fetal Bovine Serum (FBS) and stable Glutamine incubated at 37° C. Cell Titer Glo proliferation assays for A549 cells were performed with the same protocol as described afore for HCT116 cells.

SMILES	IC50 (MEK1) [nM]	IC50 (A375 cells) [nM]	IC50 (HCT116 cells; 72 hours) [nM]	IC50 (A549 cells; 72 hours) [nM]	IC50 (A375 cells; Homo sapiens, A-375, 96 h) [nM]	IC50 (HCT116 cells; Homo sapiens, HCT-116, 72 h) [nM]	IC50 (A549 cells; Homo sapiens, A549, 72 h) [nM]
Cn1c(Nc2ccc(I)cc2F)c(NS(=O)(=O)C2(CC(O)CO)CC2)ccc1=O (single isomer, unassigned) [Example 6B, 1-(2,3-dihydroxypropyl)-N-{2-[(2-fluoro-4-iodophenyl)amino]-1-methyl-6-oxo-1,6-dihydropyridin-3-yl}cyclopropanesulfonamide]	16.6	7.74	54.5	203			
Cc1cc(NS(=O)(=O)C2CC2)c(Nc2ccc(I)cc2F)n(C)c1=O [Example 1, N-(2-(2-fluoro-4-iodophenylamino)-1,5-dimethyl-6-oxo-1,6-dihydropyridin-3-yl) cyclopropanesulfonamide]	12.1						
Cn1c(Nc2ccc(I)cc2F)c(NS(=O)(=O)C2(CC(O)CO)CC2)ccc1=O (single isomer, unassigned) [Example 6A, 1-(2,3-dihydroxypropyl)-N-{2-[(2-fluoro-4-iodophenyl)amino]-1-methyl-6-oxo-1,6-dihydropyridin-3-yl}cyclopropanesulfonamide]	10.4	17.8	119	481			
Cn1c(Nc2ccc(I)cc2F)c(NS(=O)(=O)C2(CC(O)CO)CC2)cc(F)c1=O (racemic) [Example 9, 1-(2,3-dihydroxypropyl)-N-{5-fluoro-2-[(2-fluoro-4-iodophenyl)amino]-1-methyl-6-oxo-1,6-dihydropyridin-3-yl}cyclopropanesulfonamide]	21.1				25.5	300	700
Cn1c(Nc2ccc(I)cc2F)c(NS(=O)(=O)C2CC2)cc(F)c1=O [Example 8, N-{5-fluoro-2-[(2-fluoro-4-iodophenyl)amino]-1-methyl-6-oxo-1,6-dihydropyridin-3-yl}cyclopropanesulfonamide]	15.3				26.6	590	930
Cn1c(Nc2ccc(I)cc2F)c(NS(=O)(=O)C2CC2)ccc1=O [Example 5, N-{2-[(2-fluoro-4-iodophenyl)amino]-1-methyl-6-oxo-1,6-dihydropyridin-3-yl}cyclopropanesulfonamide]	9.9				2.94	90.1	206

Continued, values first:

IC50 (MEK1) [nM]	IC50 (A375 cells) [nM]	IC50 (HCT116 cells; 72 hours) [nM]	IC50 (A549 cells; 72 hours) [nM]	IC50 (A375 cells; Homo sapiens, A-375, 96 h) [nM]	IC50 (HCT116 cells; Homo sapiens, HCT-116, 72 h) [nM]	IC50 (A549 cells; Homo sapiens, A549, 72 h) [nM]	SMILES
8.36				4.7	117	254	Cn1c(Nc2ccc(I)cc2F)c(NS(=O)(=O)C2(CCO)CC2)ccc1=O [Example 7, N-{2-[(2-fluoro-4-iodophenyl)amino]-1-methyl-6-oxo-1,6-dihydropyridin-3-yl}-1-(2-hydroxyethyl)cyclopropanesulfonamide]
11.5				17			Cc1cc(NS(=O)(=O)C2(CC(O)CO)CC2)c(Nc2ccc(I)cc2F)n(C)c1=O (racemic) [Example 2, 1-(2,3-dihydroxypropyl)-N-(2-(2-fluoro-4-iodophenylamino)-1,5-dimethyl-6-oxo-1,6-dihydropyridin-3-yl)cyclopropane-1-sulfonamide]
8.97				15			Cc1cc(NS(=O)(=O)C2(CCO)CC2)c(Nc2ccc(I)cc2F)n(C)c1=O [Example 3, N-(2-(2-fluoro-4-iodophenylamino)-1,5-dimethyl-6-oxo-1,6-dihydropyridin-3-yl)-1-(2-hydroxyethyl)cyclopropane-1-sulfonamide]
38.2				22.9	360	730	Cn1c(Nc2ccc(I)cc2F)c(NS(=O)(=O)C2(CCO)CC2)cc(F)c1=O [Example 10, N-{5-fluoro-2-[(2-fluoro-4-iodophenyl)amino]-1-methyl-6-oxo-1,6-dihydropyridin-3-yl}-1-(2-hydroxyethyl)cyclopropanesulfonamide]
